Measurements taken from patent publication US20060189608A1, “Methods for treating ocular angiogenesis, retinal edema, retinal ischemia, and diabetic retinopathy using selective RTK inhibitors” (Alcon, Inc., priority 2005, published 2006).

Tests used:
[1] = Pilot intraocular safety study, single intravitreal injection, adult rat; assay type: in vivo; conditions: single intravitreal injection of 0.1 and 1.0%, up to 1 month postinjection
Description: Outcome measures were followed up to 1 month postinjection and involved clinical (fundus photography & indirect ophthalmoscopy), functional (electroretinography), and morphologic (histopathology) methods.

[2] = tested on: laser-induced choroidal neovascularization (CNV); experiment: Laser-induced CNV, oral gavage, prevention paradigm, mouse; assay type: in vivo; conditions: for inhibition of CNV: prevention paradigm; for Mean CNV / Median CNV: prevention
Protocol: Methods. CNV was generated by laser-induced rupture of Bruch's membrane. Briefly, 4 to 5 week old male C57BL/6J mice were anesthetized using intraperitoneal administration of ketamine hydrochloride (100 mg/kg) and xylazine (5 mg/kg) and the pupils of both eyes dilated with topical ocular instillation of 1% tropicamide and 2.5% Mydfin®. One drop of topical cellulose (Gonioscopic®) was used to lubricate the cornea. A hand-held cover slip was applied to the cornea and used as a contact lens to aid visualization of the fundus. Three to four retinal burns were placed in randomly assigned eye (right or left eye for each mouse) using the Alcon 532 nm EyeLite laser with a slit 5 lamp delivery system. The laser burns were used to generate a rupture in Bruch's membrane, which was indicated ophthalmoscopically by the formation of a bubble under the retina. Only mice with laser burns that produced three bubbles per eye were included in the study. Bums were typically placed at the 3, 6, 9 or 12 o'clock positions in the posterior pole of the retina, avoiding the branch retinal arteries and veins.
Each mouse was randomly assigned into one of the following treatment groups: noninjected controls, sham-injected controls, vehicle-injected mice, or one of three RTKi-injected groups. Control mice received laser photocoagulation in both eyes, where one eye received a sham injection, i.e. a pars plana needle puncture. […] The intravitreal injection was performed immediately after laser photocoagulation. At 14 days post-laser, all mice were anesthetized and systemically perfused with fluorescein-labeled dextran. Eyes were then harvested and prepared as choroidal flat mounts with the RPE side oriented towards the observer. All choroidal flat mounts were examined using a fluorescent microscope. Digital images of the CNV were captured, where the CNV was identified as areas of hyperfluorescence within the pigmented background. Computerized image analysis was used to delineate and measure the two dimensional area of the hyperfluorescent CNV per lesion (um^2) for the outcome measurement. The median CNV area/burn per mouse per treatment group or the mean CNV area/burn per treatment group was used for statistical analysis depending on the normality of data distribution; P≦0.05 was considered significant.
METHODS: CNV was generated by laser-induced rupture of Bruch's membrane as described in Example 3 above. […] The mice received an oral gavage of 0, 1.5, 5, or 10 mg/kg twice per day and for 14 days post-laser. […] Oral gavage dosing was continued twice per day for 14 days post-laser. Several mice were Is euthanized at day 7 post-laser and used for controls. At 14 days post-laser, all mice were anesthetized and systemically perfused with fluorescein-labeled dextran. Eyes were then harvested and prepared as choroidal flat mounts as described in Example 3 above.

Structure (SMILES): Cc1ccc(F)c(NC(=O)Nc2ccc(-c3cccc4[nH]nc(N)c34)cc2)c1 [AL-39324, N-[4-[3-amino-1H-indazol-4-yl)phenyl]-N′-(2-fluoro-5-methylphenyl)urea]
- adverse events (fundus, electroretinography, histopathology) [1]: No significant adverse events
- inhibition of CNV ([2]; 3 mg/kg/day oral gavage): no significant inhibition
- Mean CNV ([2]; 3 mg/kg/day oral): 21670 μm^2
- Median CNV ([2]; 3 mg/kg/day oral): 22317 μm^2
- inhibition of CNV ([2]; 10 mg/kg/day oral gavage): 84.3%
- Mean CNV ([2]; 10 mg/kg/day oral): 4046 μm^2
- Median CNV ([2]; 10 mg/kg/day oral): 4137 μm^2
- inhibition of CNV ([2]; 20 mg/kg/d oral gavage): complete inhibition of CNV
- Mean CNV ([2]; 20 mg/kg/day oral): 3266 μm^2
- Median CNV ([2]; 20 mg/kg/day oral): 0 μm^2
